Results on one molecule are retold here after patent US7892549B2, “Treatment with anti-ErbB2 antibodies” (Genentech, Inc., priority 1997, dated 2011).

The data set has as its system metastatic breast cancer with overexpression of the ErbB2 (HER2) oncogene. The data set is described as follows: Randomized clinical study of chemotherapy with or without HERCEPTIN in patients. Type of data set: in vivo, human.

Procedure: Beginning on day 7, patients received weekly administration of 2 mg/kg antibody (i.v.) over a 90-minute period.
The patients received one of two chemotherapy regiments for a minimum of six cycles, provided their disease was not progressing: a) cyclophosphamide and doxorubicin or epirubicin (AC), if patients have not received anthracycline therapy in the adjuvant setting, or b) paclitaxel (T, TAXOL®), if patients have received any anthracycline therapy in the adjuvant setting. […] Subsequent doses of the antibody were given immediately before chemotherapy administration, if the initial dose of the antibody was well tolerated. If the first dose of the antibody was not well tolerated, subsequent infusions continued to precede chemotherapy administration by 24 hours. Patients were permitted to continue receiving chemotherapy beyond six cycles if, in the opinion of the treating physician, they were continuing to receive treatment benefit.
Cyclophosphamide (600 mg/m^2) was given either by iv push over a minimum period of 3 minutes or by infusion over a maximum period of 2 hours. […]
Time to disease progression (TTP) was calculated from the beginning of therapy to progression. Confidence limits for response rates were calculated using the exact method for a single proportion.

For the molecule `CC(=O)O[C@H]1C(=O)[C@@]2(C)[C@H]([C@H](OC(=O)c3ccccc3)[C@]3(O)C[C@H](OC(=O)[C@H](O)[C@@H](NC(=O)c4ccccc4)c4ccccc4)C(C)=C1C3(C)C)[C@]1(OC(C)=O)CO[C@@H]1C[C@@H]2O` [T, paclitaxel], the “syndrome of myocardial dysfunction similar to that observed with anthracyclines” value (Grade ¾) is 0%. Besides, under “median follow-up 10.5 months”, the “AE(%), overall severe adverse events” value was 59%.
